The record followed here is patent US20230081426A1, “COMPOUNDS AND METHODS FOR KRAS MODULATION AND INDICATIONS THEREFOR” (Plexxikon Inc., priority 2020, published 2023).

For orientation: IC50 means the concentration at which inhibition is half-maximal.

Test [1] concerns the target T1, G12V-mutant human KRAS (amino acid residues 1-188) (Homo sapiens, UniProt P01116, G12V).
T1 construct: G12V-mutant human KRAS (amino acid residues 1-188) with FLAG tag was purified from E. coli; made in house; host or cells: E. coli
The test can be described thus: KRAS Binding Competition Assay (AlphaScreen; biotinylated KRpep-2d analogue), G12V. The settings on record: geometric mean, read-out: KRAS GMean IC50 (uM) MUTATION: G12V. A general note: In Alpha technology, singlet oxygen from a donor bead excites a nearby acceptor bead.

Test [2] has as its target T2, G12C-mutant human KRAS (amino acid residues 1-188) (Homo sapiens, UniProt P01116, G12C).
T2 construct: G12D or G12C-mutant human KRAS (amino acid residues 1-188) with FLAG tag; made in house; host or cells: E. coli
Kind of test: KRAS Binding Disruption Assay (AlphaScreen; biotinylated KRpep-2d analogue or RAF1-RBD), G12C. As to conditions: geometric mean, read-out: KRAS GMean IC50 (uM) MUTATION: G12C. A digest of the protocol:
(§1)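 AlphaScreen readout: signal falls as compound displaces biotinylated KRpep-2d analogue or RAF1-RBD from mutant KRAS. Both partners at 5-20 nM, 1 h binding at 25° C, then 10 μg/mL Anti-Flag acceptor and streptavidin donor beads for 1 h. IC50 by nonlinear regression of % inhibition.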

For test [3], the target named is T3, G12D-mutant human KRAS (amino acid residues 1-188) (Homo sapiens, UniProt P01116, G12D).
T3 construct: G12D or G12C-mutant human KRAS (amino acid residues 1-188) with FLAG tag; made in house; host or cells: E. coli
Kind of test: KRAS Binding Disruption Assay (AlphaScreen; biotinylated KRpep-2d analogue or RAF1-RBD), G12D. The settings on record: for IC50: geometric mean, read-out: KRAS GMean IC50 (uM) MUTATION: G12D; for Improved KRAS G12D Biochemical Potency of Compounds with Bridged vs Non-Bridged R^1 Groups: fold more potent than non-bridged version at the R1 variable. In short, it runs like this:
as §1

Where [4] appears, read: Table 3, bridged vs non-bridged R1.

Where two headings read alike, the source gives them in different places.

For the compound `CN1CCC[C@H]1COc1nc(N2C[C@H]3CC[C@@H](C2)N3)c2cc(Cl)c(-c3cc(O)cc4ccccc34)c(F)c2n1` [P-0001, 4-(4-((1R,5S)-3,8-diazabicyclo[3.2.1]octan-3-yl)-6-chloro-8-fluoro-2-(((S)-1-methylpyrrolidin-2-yl)methoxy)quinazolin-7-yl)naphthalen-2-ol], the IC50 in test [1] was 10 to 100 µM; in test [2], 0.0001 to 10 µM; in test [3] (KRAS G12D), 0.0001 to 10 µM; in test [3] (setting [4]) it was 0.016 µM. Besides, the “Improved KRAS G12D Biochemical Potency of Compounds with Bridged vs Non-Bridged R^1 Groups” value in test [3] (Table 3) is on record as “P-0001 is about 70 times more potent than its non- bridged version at the R^1 variable”.
Consider `Oc1cc(-c2ccc3c(N4C[C@H]5CC[C@@H](C4)N5)nc(OCC45CCCN4CCC5)nc3c2)c2ccccc2c1` [P-0002, 4-(4-((1R,5S)-3,8-diazabicyclo[3.2.1]octan-3-yl)-2-((tetrahydro-1H-pyrrolizin-7a(5H)-yl)methoxy)quinazolin-7-yl)naphthalen-2-ol], for which the IC50 in test [1], in test [2] and in test [3] (KRAS G12D) was 0.0001 to 10 µM throughout.
On to `Cc1cccc2cccc(-c3ccc4c(N5C[C@H]6CC[C@@H](C5)N6)nc(OCC56CCCN5CCC6)nc4c3F)c12` [P-0005, 4-((1R,5S)-3,8-diazabicyclo[3.2.1]octan-3-yl)-8-fluoro-7-(8-methylnaphthalen-1-yl)-2-((tetrahydro-1H-pyrrolizin-7a(5H)-yl)methoxy)quinazoline], for which the IC50 lay within 10 to 100 µM in test [1], 0.0001 to 10 µM in test [2] and 0.0001 to 10 µM in test [3] (KRAS G12D).
Regarding `NCC(=O)N1[C@@H]2CC[C@H]1CN(c1nc(OCC34CCCN3CCC4)nc3cc(-c4cc(O)cc5ccccc45)ccc13)C2` [P-0007, 2-amino-1-((1R,5S)-3-(7-(3-hydroxynaphthalen-1-yl)-2-((tetrahydro-1H-pyrrolizin-7a(5H)-yl)methoxy)quinazolin-4-yl)-3,8-diazabicyclo[3.2.1]octan-8-yl)ethan-1-one], the IC50 in test [1], in test [2] and in test [3] (KRAS G12D) was 0.0001 to 10 µM each time.
Take `O=C(CO)N1[C@@H]2CC[C@H]1CN(c1nc(OCC34CCCN3CCC4)nc3cc(-c4cc(O)cc5ccccc45)ccc13)C2` [P-0008, 2-hydroxy-1-((1R,5S)-3-(7-(3-hydroxynaphthalen-1-yl)-2-((tetrahydro-1H-pyrrolizin-7a(5H)-yl)methoxy)quinazolin-4-yl)-3,8-diazabicyclo[3.2.1]octan-8-yl)ethan-1-one]: the IC50 in test [1], in test [2] and in test [3] (KRAS G12D) was 0.0001 to 10 µM throughout.
As to `CN1CCC[C@H]1COc1nc(N2C[C@H]3CC[C@@H](C2)N3)c2cc(F)c(-c3cc(O)cc4ccccc34)c(F)c2n1` [P-0009, 4-(4-((1R,5S)-3,8-diazabicyclo[3.2.1]octan-3-yl)-6,8-difluoro-2-(((S)-1-methylpyrrolidin-2-yl)methoxy)quinazolin-7-yl)naphthalen-2-ol], the IC50 in test [1], in test [2] and in test [3] (KRAS G12D) was 0.0001 to 10 µM throughout.
Turning to `Oc1cc(-c2c(F)cc3c(N4C[C@H]5CC[C@@H](C4)N5)nc(OCC45CCCN4CCC5)nc3c2F)c2ccccc2c1` [P-0010, 4-(4-((1R,5S)-3,8-diazabicyclo[3.2.1]octan-3-yl)-6,8-difluoro-2-((tetrahydro-1H-pyrrolizin-7a(5H)-yl)methoxy)quinazolin-7-yl)naphthalen-2-ol], the IC50 in test [1], in test [2] and in test [3] (KRAS G12D) was 0.0001 to 10 µM throughout.
On to `Cc1c(-c2cc(O)cc3ccccc23)ccc2c(N3C[C@H]4CC[C@@H](C3)N4)nc(OCC34CCCN3CCC4)nc12` [P-0015, 4-(4-((1R,5S)-3,8-diazabicyclo[3.2.1]octan-3-yl)-8-methyl-2-((tetrahydro-1H-pyrrolizin-7a(5H)-yl)methoxy)quinazolin-7-yl)naphthalen-2-ol], for which the IC50 in test [1], in test [2] and in test [3] (KRAS G12D) was 0.0001 to 10 µM each time.
Turning to `CN1[C@@H]2CC[C@H]1CN(c1nc(OCC34CCCN3CCC4)nc3cc(-c4cc(O)cc5ccccc45)ccc13)C2` [P-0017, 4-(4-((1R,5S)-8-methyl-3,8-diazabicyclo[3.2.1]octan-3-yl)-2-((tetrahydro-1H-pyrrolizin-7a(5H)-yl)methoxy)quinazolin-7-yl)naphthalen-2-ol], the IC50 in test [1] fell in the range of 10 to 100 µM; in test [2], 10 to 100 µM; in test [3] (KRAS G12D), 0.0001 to 10 µM.
In the case of `CN1CCC[C@H]1COc1nc(N2C[C@H]3CC[C@@H](C2)N3)c2cc(C#N)c(-c3cc(O)cc4ccccc34)c(F)c2n1` [P-0021, 4-((1R,5S)-3,8-diazabicyclo[3.2.1]octan-3-yl)-8-fluoro-7-(3-hydroxynaphthalen-1-yl)-2-(((S)-1-methylpyrrolidin-2-yl)methoxy)quinazoline-6-carbonitrile], the IC50 in test [1], in test [2] and in test [3] (KRAS G12D) was 0.0001 to 10 µM throughout.
For the compound `CN1CCC[C@H]1COc1nc(N2C[C@H]3CC[C@@H](C2)N3)c2cc(C(=O)O)c(-c3cc(O)cc4ccccc34)c(F)c2n1` [P-0024, 4-(3,8-Diazabicyclo[3.2.1]octan-3-yl)-8-fluoro-7-(3-hydroxy-1-naphthyl)-2-[[(2S)-1-methylpyrrolidin-2-yl]methoxy]quinazoline-6-carboxylic acid], the IC50 in test [1] fell in the range of 0.0001 to 10 µM; in test [2] it was 10 to 100 µM; in test [3] (KRAS G12D) it was 0.0001 to 10 µM.
For the compound `CN1CCC[C@H]1COc1nc(N2C[C@H]3CC[C@@H](C2)N3)c2cc(Cl)c(-c3c(O)cccc3F)c(F)c2n1` [P-0027, 2-(4-((1R,5S)-3,8-diazabicyclo[3.2.1]octan-3-yl)-6-chloro-8-fluoro-2-(((S)-1-methylpyrrolidin-2-yl)methoxy)quinazolin-7-yl)-3-fluorophenol], the IC50 in test [1] was 10 to 100 µM; in test [2], 10 to 100 µM; in test [3] (KRAS G12D), 0.0001 to 10 µM; in test [3] (setting [4]) it was 0.038 µM. In addition, in test [3] (Table 3), the “Improved KRAS G12D Biochemical Potency of Compounds with Bridged vs Non-Bridged R^1 Groups” value is recorded as “P-0027 is about 392 times more potent than its non- bridged version at the R^1 variable”.
In the case of `CN1CCC[C@H]1COc1nc(N2CC3CCC2CN3)c2cc(Cl)c(-c3cc(O)cc4ccccc34)c(F)c2n1` (stereo partly drawn) [P-0030, 4-(4-(2,5-diazabicyclo[2.2.2]octan-2-yl)-6-chloro-8-fluoro-2-(((S)-1-methylpyrrolidin-2-yl)methoxy)quinazolin-7-yl)naphthalen-2-ol], the IC50 lay within 10 to 100 µM in test [1], 10 to 100 µM in test [2] and 0.0001 to 10 µM in test [3] (KRAS G12D).
With `CN1CCC(Oc2nc(N3C[C@H]4CC[C@@H](C3)N4)c3cc(Cl)c(-c4cc(O)cc5ccccc45)c(F)c3n2)CC1` [P-0032, 4-(4-((1R,5S)-3,8-diazabicyclo[3.2.1]octan-3-yl)-6-chloro-8-fluoro-2-((1-methylpiperidin-4-yl)oxy)quinazolin-7-yl)naphthalen-2-ol], the IC50 in test [1] fell in the range of 10 to 100 µM; in test [2], 10 to 100 µM; in test [3] (KRAS G12D), 0.0001 to 10 µM.
On to `Oc1cc(-c2c(Cl)cc3c(N4C[C@H]5CC[C@@H](C4)N5)nc(OCC45CCCN4CCC5)nc3c2F)c2ccccc2c1` [P-0034, 4-(4-((1R,5S)-3,8-diazabicyclo[3.2.1]octan-3-yl)-6-chloro-8-fluoro-2-((tetrahydro-1H-pyrrolizin-7a(5H)-yl)methoxy)quinazolin-7-yl)naphthalen-2-ol], for which the IC50 in test [1], in test [2] and in test [3] (KRAS G12D) was 0.0001 to 10 µM throughout.
On to `CN1CCC[C@H]1COc1nc(N2C[C@H]3CC[C@@H](C2)N3)c2ccc(-c3cc(O)cc4ccccc34)cc2n1` [P-0037, 4-(4-((1R,5S)-3,8-diazabicyclo[3.2.1]octan-3-yl)-2-(((S)-1-methylpyrrolidin-2-yl)methoxy)quinazolin-7-yl)naphthalen-2-ol], for which the IC50 in test [1], in test [2] and in test [3] (KRAS G12D) was 0.0001 to 10 µM throughout.
As to `CN1CCC[C@H]1COc1nc(N2CC3CC2CN3)c2cc(Cl)c(-c3cc(O)cc4ccccc34)c(F)c2n1` (stereo partly drawn) [P-0038, 4-(4-(2,5-diazabicyclo[2.2.1]heptan-2-yl)-6-chloro-8-fluoro-2-(((S)-1-methylpyrrolidin-2-yl)methoxy)quinazolin-7-yl)naphthalen-2-ol], the IC50 was in the range of 10 to 100 µM in test [1], 10 to 100 µM in test [2] and 0.0001 to 10 µM in test [3] (KRAS G12D).
For `CN1CCC[C@H]1COc1nc(N2C[C@H]3CC[C@@H](C2)N3)c2ccc(-c3cc(O)cc4ccccc34)c(F)c2n1` [P-0044, 4-(4-((1R,5S)-3,8-diazabicyclo[3.2.1]octan-3-yl)-8-fluoro-2-(((S)-1-methylpyrrolidin-2-yl)methoxy)quinazolin-7-yl)naphthalen-2-ol], the IC50 in test [1], in test [2] and in test [3] (KRAS G12D) was 0.0001 to 10 µM each time.
With `Oc1cc(-c2ccc3c(N4C[C@H]5CC[C@@H](C4)N5)nc(OCC45CCCN4CCC5)nc3c2F)c2ccccc2c1` [P-0048, 4-(4-((1R,5S)-3,8-diazabicyclo[3.2.1]octan-3-yl)-8-fluoro-2-((tetrahydro-1H-pyrrolizin-7a(5H)-yl)methoxy)quinazolin-7-yl)naphthalen-2-ol], the IC50 in test [1], in test [2] and in test [3] (KRAS G12D) was 0.0001 to 10 µM throughout.
